Reference: US7192975B2, “Arylimidazole derivatives, preparation and therapeutic used thereof” (Societe de Conseils de Recherches Et d''Applications …, priority 2002, dated 2007)
Counter-ions that a name gives are not always drawn.

melting point | SMILES
97 to 98 °C | CCCCOC(=O)NCCc1nc(-c2ccc(-c3ccc(N=C(N)c4cccs4)cc3)cc2)c[nH]1 (as salt: hydrochloride) [Example 3, butyl 2-[4-(4′-{[(1Z)-amino(thien-2-yl)methylene]amino}-1,1′-biphenyl-4-yl-1H-imidazol-2-yl]ethylcarbamate hydrochloride]
> 225 °C | NC(=Nc1cccc(-c2c[nH]c(CNC3CCCCC3)n2)c1)c1cccs1 (as salt: hydrochloride) [Example 6, N′-(3{2-[cyclohexylamino)methyl]-1H-imidazol-4-yl}phenyl)thiophene-2-carboximidamide hydrochloride]
> 191 °C | N=C(Nc1cccc(-c2c[nH]c(CCC3CCCCC3)n2)c1)c1cccs1 (as salt: hydrochloride) [Example 13, N-{3[2-(2-cyclohexlethyl)-1H-imidazol-4-yl]phenyl}thiophene-2-carboximidamide hydrochloride]
185 to 186 °C | NC(=N[N+](=O)[O-])Nc1ccc(-c2c[nH]c(CCC3CCCCC3)n2)cc1 (as salt: hydrochloride) [Example 19, N{4-[2-(2-cyclohexylethyl)-1H-imidazol-4-yl]phenyl}N″-nitroguanidine hydrochloride]
210 to 212 °C | CCCCN(CCc1nc(-c2cccc(/N=C(/N)c3cccs3)c2)c[nH]1)C(=O)O.Cl [Example 2, butyl-2[4(3-{[(1E)-amino(thien-2yl)methylene]-amino}phenyl)-1H-imidazol-2-yl]ethylcarbamate hydrochloride]
185 to 186 °C | Cl.NC(=Nc1ccc(-c2c[nH]c(CCNC3CCCCC3)n2)cc1)c1cccs1 [Example 5, N′-(4-{2-[2-(cyclohexylamino)ethyl]-1H-imidazol-4-yl}phenyl)thiophene-2-carboximidamide hydrochloride]
240 to 241 °C | CN(Cc1nc(-c2ccc(N=C(N)c3cccs3)cc2)c[nH]1)C1CCCCC1.Cl [Example 7, N′-[4-(2-{[cyclohexyl(methyl)amino]methyl}-1H-imidazol-4-yl)phenyl]thiophene-2-carboximidamide hydrochloride]
150 to 151 °C | Cl.NC(=Nc1ccc(-c2c[nH]c(CN(Cc3ccccc3)Cc3ccccc3)n2)cc1)c1cccs1 [Example 8, N′-(4{2-[(dibenzylamino)methyl]-1H-imidazol-4-yl}phenyl)thiophene-2-carboximidamide hydrochloride]
228 to 229 °C | Cl.NC(=Nc1ccc(-c2c[nH]c(CNCc3ccccc3)n2)cc1)c1cccs1 [Example 9, N′-(4-{2-[(benzylamino)methyl]-1H-imidazol-4-yl}phenyl)thiophene-2-carboximidamide hydrochloride]
> 300 °C | Cl.NC(=Nc1cccc(-c2c[nH]c(C/N=C(/N)c3cccs3)n2)c1)c1cccs1 [Example 11, N′-{3[2-({[(1E)-amino(thien-2-yl)methylene]-amino}methyl)-1H-imidazol-4-yl]phenyl}thiophene-2-carboximidamide hydrochloride]
227 to 228 °C | Cl.NC(=Nc1ccc(-c2c[nH]c(C/N=C(/N)c3cccs3)n2)cc1)c1cccs1 [Example 12, N′-{4-[2-({[(1E)-amino(thien-2-yl)methylene]-amino}methyl)-1H-imidazol-4-yl]phenyl}thiophene-2-carboximidamide hydrochloride]
163.3 °C | CCCCCC(CCCCC)c1nc(-c2cccc(N=C(N)c3cccs3)c2)c[nH]1.Cl [Example 14, N′-{3-[2(1-pentylhexyl)-1H-imidazol-4-yl]phenyl}thiophene-2-carboximidamide hydrochloride]
196.2 °C | Cl.NC(=Nc1ccc(-c2c[nH]c(CCC3CCCCC3)n2)cc1)c1cccs1 [Example 15, N′-{4-[2-(2-cyclohexylethyl)-1H-imidazol-4-yl]phenyl}thiophene-2-carboximidamide hydrochloride]
180 to 181 °C | Cl.NC(=Nc1cccc(-c2c[nH]c(CCCC3CCCCC3)n2)c1)c1cccs1 [Example 17, N′-{3-[2-(3-cyclohexylpropyl)-1H-imidazol-4-yl]phenyl}thiophene-2-carboximidamide hydrochloride]
264 to 265 °C | Cl.NC(=Nc1ccc(-c2c[nH]c(CNC3CCCCCC3)n2)cc1)c1cccs1 [Example 20, N′-(4-{2-[(cycloheptylamino)methyl]-1H-imidazol-4-yl}phenyl)thiophene-2-carboximidamide hydrochloride]
> 250 °C | CNCc1nc(-c2ccc(N=C(N)c3cccs3)cc2)c[nH]1.Cl [Example 21, N′-(4-{2-[(methylamino)methyl]-1H-imidazol-4-yl}phenyl)thiophene-2-carboximidamide hydrochloride]
263 to 264 °C | Cl.NC(=Nc1ccc(-c2c[nH]c(CNC3CCC3)n2)cc1)c1cccs1 [Example 22, N′-(4-{2-[(cyclobutylamino)methyl]-1H-imidazol-4-yl}phenyl)thiophene-2-carboximidamide hydrochloride]
> 250 °C | Cl.NC(=Nc1ccc(-c2c[nH]c(CNCC(c3ccccc3)c3ccccc3)n2)cc1)c1cccs1 [Example 23, N′[4-(2-{[(2,2-diphenylethyl)amino]methyl}-1H-imidazol-4-yl)phenyl]thiophene-2-carboximidamide hydrochloride]
> 245 °C | Cl.NC(=Nc1cccc(-c2c[nH]c(CC/N=C(/N)c3cccs3)n2)c1)c1cccs1 [Example 24, N′-{3-[2-(2{[(1E)-amino(thien-2-yl)methylene]amino}ethyl)-1H-imidazol-4-yl]phenyl}thiophene-2-carboximidamide hydrochloride]
214 to 216 °C | CC(C)Cc1ccc(Cc2nc(-c3cccc(N=C(N)c4cccs4)c3)c[nH]2)cc1.Cl [Example 27, N′-{3-[2-(4-isobutylbenzyl)-1H-imidazol-4-yl]phenyl}thiophene-2-carboximidamide hydrochloride]
